# Experimental data reported in ChEMBL document CHEMBL5376007, “Discovery of Novel PD-L1 Inhibitors That Induce the Dimerization, Internalization, and Degradation of PD-L1 Based on the Fragment Coupling Strategy” (J Med Chem, 2023).
# Active and inactive are the calls of the source. The calls are words filed in the database; no cut-off is given here.
# Legend:
# [1] = target: Programmed cell death protein 1/Programmed cell death 1 ligand 1 (Homo sapiens, UniProt Q9NZQ7); assay: Inhibition of interaction of Fc(IgG1)-Avi)-(Biotin)-fused human PDL1 (19 to 239 residues)/Eu-labeled human PD-1 (25 to 167 residues) expressed in HEK293 cells pretreated with PDL1 for 15 mins followed by PD-1 addition and measured after 90 mins by TR-FRET assay; format: cell-based
# Programmed cell death protein 1/Programmed cell death 1 ligand 1, sequence (Q15116 whole entry, the tested form may be a part): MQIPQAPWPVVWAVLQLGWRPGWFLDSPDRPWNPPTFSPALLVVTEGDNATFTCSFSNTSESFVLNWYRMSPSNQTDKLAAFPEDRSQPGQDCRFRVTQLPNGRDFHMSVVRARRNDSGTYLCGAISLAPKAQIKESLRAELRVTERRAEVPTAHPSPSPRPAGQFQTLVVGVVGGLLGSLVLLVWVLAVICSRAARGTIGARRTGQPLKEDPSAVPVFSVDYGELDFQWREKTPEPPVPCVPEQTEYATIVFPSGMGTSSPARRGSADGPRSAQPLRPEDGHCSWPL
# Programmed cell death protein 1/Programmed cell death 1 ligand 1, sequence (Q9NZQ7 whole entry, the tested form may be a part): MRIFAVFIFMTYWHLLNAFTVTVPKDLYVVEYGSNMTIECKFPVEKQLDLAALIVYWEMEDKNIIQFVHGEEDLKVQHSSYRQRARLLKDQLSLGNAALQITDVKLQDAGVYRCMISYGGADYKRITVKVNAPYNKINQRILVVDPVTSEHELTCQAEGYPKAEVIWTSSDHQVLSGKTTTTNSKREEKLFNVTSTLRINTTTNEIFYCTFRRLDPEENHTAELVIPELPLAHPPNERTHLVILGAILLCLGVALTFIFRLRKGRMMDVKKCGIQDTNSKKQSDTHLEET
# [2] = target: Programmed cell death 1 ligand 1 (Homo sapiens, UniProt Q9NZQ7); assay: Inhibition of human recombinant PDL1 expressed in HEK293 cells assessed as restoration of Jurkat T cell activity by measuring increase in IFNgamma secretion at 1 uM incubated for 24 hrs by ELISA; format: cell-based
# Programmed cell death 1 ligand 1, sequence (Q9NZQ7 whole entry): as the sequence (Q9NZQ7 whole entry, the tested form may be a part) above
# CT26 [3] = assay: Antitumor activity against mouse CT26 cells xenografted in BALB/c mouse assessed as inhibition of tumor growth at 20 mg/kg, ip qd for 2 weeks; format: functional, organism-based
# CT26 [4] = assay: Antitumor immunity against mouse CT26 cells xenografted in BALB/c mouse assessed as increase in infiltration of CD8+ cells in tumor at 20 mg/kg, ip qd for 2 weeks by immunohistochemical staining based analysis; format: functional, organism-based
# CT26 [5] = assay: In vivo inhibition of PDL1 in BALB/c mouse xenografted with mouse CT26 cells assessed as induction of PDL1 degradation by measuring decrease in PDL1 protein expression in tumor at 20 mg/kg, ip qd for 2 weeks by immunohistochemical staining based analysis; format: functional, organism-based
SMILES,IC50 [1] [nM],further results
Cc1c(-c2nnc(Nc3cccc(CNCCO)c3)o2)cccc1-c1cccc(-c2nnc(Nc3cccc(CNCCO)c3)o2)c1C,78.4,–
COc1nc(O[C@H]2CCc3c(-c4cccc(C(=O)Nc5ccc(CNCCNC(C)=O)cn5)c4Cl)cccc32)c(Cl)cc1CNCCNC(C)=O,4.1,inhibition [2]: Active
COc1nc(O[C@H]2CCc3c(-c4cccc(C(=O)Nc5ccc(CNCCNC(C)=O)c(F)n5)c4Cl)cccc32)c(Cl)cc1CNCCNC(C)=O,15.6,–
Cc1c(C(=O)Nc2ccc(CNCCO)cn2)cccc1-c1cccc(-c2nnc(Nc3cccc(CNCCO)c3)o2)c1C,14.5,–
CC(=O)NCCNCc1ccc(Nc2nnc(-c3cccc(-c4cccc(-c5nnc(Nc6cccc(CNCCNC(C)=O)c6)o5)c4C)c3C)o2)cc1,893,–
CC(=O)NCCNCc1cccc(Nc2nnc(-c3cccc(-c4cccc(-c5nnc(Nc6cccc(CNCCO)c6)o5)c4C)c3C)o2)c1,38,–
Cc1c(Nc2nccc3cc(CN4CC[C@@H](O)C4)cnc23)cccc1-c1cccc(-c2nc3cc(CN4CC[C@@H](C(=O)O)C4)cc(C#N)c3o2)c1C,–,Activity (CT26 [3]): Active; Activity (CT26 [4]): Active; inhibition (CT26 [5]): inactive
Cc1c(-c2nnc(Nc3cccc(CNCC(=O)O)c3)o2)cccc1-c1cccc(-c2nnc(Nc3cccc(CNCC(=O)O)c3)o2)c1C,68.8,–
COc1nc(O[C@H]2CCc3c(-c4cccc(C(=O)Nc5ccc(CNCCO)c(C(F)(F)F)n5)c4Cl)cccc32)c(Cl)cc1CNCCO,16.7,–
COc1nc(O[C@H]2CCc3c(-c4cccc(C(=O)Nc5ccc(CNCCN(C)C)cn5)c4Cl)cccc32)c(Cl)cc1CNCCN(C)C,4.2,–
Cc1c(-c2nnc(Nc3cccc(CN4CC[C@@H](O)C4)c3)o2)cccc1-c1cccc(-c2nnc(Nc3cccc(CN4CC[C@@H](O)C4)c3)o2)c1C,30.9,inhibition [2]: Active
Cc1c(-c2nnc(Nc3cccc(CNCCO)c3)o2)cccc1-c1cccc(C(=O)Nc2ccc(CNCCO)cn2)c1Cl,8.2,–
COc1nc(O[C@H]2CCc3c(-c4cccc(C(=O)Nc5ccc(CNCCNC(C)=O)c(C(F)(F)F)n5)c4Cl)cccc32)c(Cl)cc1CNCCNC(C)=O,18.8,–
Cc1c(-c2nnc(Nc3ccc(CNCCO)cc3)o2)cccc1-c1cccc(-c2nnc(Nc3cccc(CNCCO)c3)o2)c1C,714,–
COc1nc(-c2cccc(-c3cccc(-c4nnc(Nc5cccc(CNCCO)c5)o4)c3C)c2C)ccc1CNCCO,13.9,inhibition [2]: Active
COc1nc(NC(=O)c2cccc(-c3cccc4c3CC[C@@H]4Oc3nc(OC)c(CNCCO)cc3Cl)c2Cl)ccc1CNCCO,18.2,–
